Source: PubChem BioAssay (NCI)
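Interpolation was linear, between the two tested concentrations surrounding the appropriate level; five concentrations were tested over 48 hours in 96-well plates. Here, GI50 denotes the concentration required for 50% inhibition of growth. At the TGI there is no net growth.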

Legend:
Assay in all cases: NCI-60 cell line screen, 48 h
T-47D breast = test system: T-47D breast
SNB-75 CNS = test system: SNB-75 CNS
K-562 leukemia = test system: K-562 leukemia
U251 CNS = test system: U251 CNS
LOX IMVI melanoma = test system: LOX IMVI melanoma
RXF 393 renal = test system: RXF 393 renal
NCI-H23 lung = test system: NCI-H23 lung
UACC-257 melanoma = test system: UACC-257 melanoma
SW-620 colon = test system: SW-620 colon
SR leukemia = test system: SR leukemia

| SMILES | GI50 (T-47D breast) [µM] | TGI (T-47D breast) [µM] | GI50 (SNB-75 CNS) [nM] | TGI (SNB-75 CNS) [µM] | GI50 (K-562 leukemia) [µM] | TGI (K-562 leukemia) [µM] | GI50 (U251 CNS) [nM] | TGI (U251 CNS) [µM] | GI50 (LOX IMVI melanoma) [nM] | TGI (LOX IMVI melanoma) [µM] | GI50 (RXF 393 renal) [nM] | TGI (RXF 393 renal) [µM] | GI50 (NCI-H23 lung) [µM] | TGI (NCI-H23 lung) [µM] | GI50 (UACC-257 melanoma) [µM] | TGI (UACC-257 melanoma) [µM] | GI50 (SW-620 colon) [nM] | TGI (SW-620 colon) [µM] | TGI (SR leukemia) [µM] | GI50 (SR leukemia) [µM] |
| --- | --- | --- | --- | --- | --- | --- | --- | --- | --- | --- | --- | --- | --- | --- | --- | --- | --- | --- | --- | --- |
| COc1cc(F)c(/C=C/c2cc(/C=C/c3cc(OC)c(OC)cc3F)n(-c3cc(F)cc(F)c3)n2)cc1OC | 3.46 | 20.7 | 2420 | 14.4 | 3.08 | > 100 | 1690 | 3.15 | 2620 | 8.3 | 5070 | 18.4 | 2.53 | 7.15 | 1.48 | 3.28 | 2440 | 5.86 |  |  |
| NCc1c(C(N)=O)ncn1Cc1ccccc1 |  |  |  | > 100 |  | > 100 |  | > 100 |  | > 100 |  | > 100 |  | > 100 |  | > 100 |  | > 100 |  |  |
| CCOC(=O)C(C)(C)Oc1ccc2c(-c3ccc(Cl)cc3)c(-c3ccc(Cl)cc3)c(=O)oc2c1 |  |  |  | > 100 |  | > 100 |  | > 100 |  | > 100 |  | > 100 |  | > 100 |  | > 100 |  | > 100 | > 100 |  |
| CCOc1nccc2c1nc(-c1nonc1N)n2CC | > 25 | > 25 | 16200 | > 25 | > 25 | > 25 | > 25000 | > 25 | > 25000 | > 25 | > 25000 | > 25 | > 25 | > 25 | > 25 | > 25 | > 25000 | > 25 |  |  |
| CC(=O)[O-].[Zn].c1ccc(/C(=N\Nc2ccccn2)c2ccccn2)cc1 |  |  |  | 2.63 |  | 2.35 | 482 | 1.88 | 320 | 1.59 |  |  |  | 19.3 |  | 2.08 | 31.9 | 1.63 |  |  |
| COc1nc2c(nc(N)n2C2OCC(O)C(O)C2O)c(=O)n1C (stereo unspecified) |  |  |  | > 100 |  | > 100 |  | > 100 |  | > 100 |  | > 100 |  | > 100 |  | > 100 |  | > 100 | > 100 |  |
| Clc1cc(-c2ccccc2)nc2ccccc12 |  | > 100 |  | 83.5 |  | > 100 |  | > 100 |  | > 100 |  | > 100 |  | > 100 |  | > 100 |  | > 100 |  |  |
| N#Cc1nc2c(S(=O)(=O)c3ccccc3)c(N)n(Cc3ccc(Cl)cc3)c2nc1C#N | 15.5 | 46.4 |  |  | > 50 | > 50 | 8090 | 18.3 | 932 | 4.17 | 2450 | 13.9 | 6.46 | 38.6 | 33.1 | > 50 | 17000 | > 50 | > 50 | 9.72 |
| COc1ccc2c(c1)c(-c1ccc(-c3cn(C)c4ccc(OC)cc34)[nH]1)cn2C |  |  | 2250 | 6.26 | 1.48 | 6.8 | 1400 | 3.52 | 2030 | 4.39 | 1400 | 3.52 | 4.84 | 33 | 13.7 | 38.7 | 2260 | 5.86 | 4.01 | 1.31 |
| CCOC(=O)N1C(c2ccccc2)C=CC(c2ccccc2)N1C(=O)OCC (stereo unspecified) |  |  |  | > 100 |  | > 100 |  | > 100 |  | > 100 |  | > 100 |  | > 100 |  | > 100 |  | > 100 | > 100 |  |
| CS/C(c1ccccc1)=[N+](\[O-])Cc1ccccc1 |  |  |  | > 100 |  | > 100 |  | > 100 |  | 31.6 |  | > 100 |  | > 100 |  | > 100 |  |  | 43.3 |  |
| COc1cc(/C=C\c2ccc(Br)cc2)cc(OC)c1OC |  |  |  |  |  | 36.8 |  | 0.012 |  |  |  |  |  |  |  | 11.3 |  | > 100 | 10.6 |  |
| Cc1ccc(C2=C(c3ccc(C)cc3)C(c3ccc(C)cc3)=C(c3ccc(C)cc3)C2=O)cc1 |  |  |  | > 100 |  | > 100 |  | > 100 |  |  |  | > 100 |  | > 100 |  | > 100 |  | > 100 | > 100 |  |
| CCn1c(=O)c2ccccc2n2c(=O)c3cc4ccccc4cc3nc12 |  |  |  | 95.3 |  | > 100 |  | > 100 |  | > 100 |  | 37 |  | > 100 |  | > 100 |  | > 100 |  |  |
| CC(=O)OC1CCC2C(=CCC3C2(C)C(=O)CC2(C)C(C4(C)OC(C(C)C)=CC4=O)C(O)CC32C)C1(C)C (stereo unspecified) |  |  |  | > 100 |  | > 100 |  | > 100 |  |  |  |  |  | > 100 |  |  |  | > 100 | 72.5 |  |
| Clc1ccc(CNc2nccc(-c3cnn4ncccc34)n2)cc1 | 5.26 | > 25 | 6280 | 12.8 | 10.6 | > 25 | 6730 | > 25 | 6120 | > 25 | 4880 | 10.2 | 6.74 | 22.8 | 6.43 | 16.5 | 8420 | > 25 |  |  |
| N#Cc1ccc(Oc2cccc(Oc3ccccc3)c2)cc1C#N |  |  |  | 31.6 |  | > 100 |  | > 100 |  |  |  | > 100 |  | > 100 |  |  |  | > 100 |  |  |
| O=C(N/C(=C\c1ccc(/C=C(\NC(=O)c2ccccc2)c2nc3ccccc3s2)cc1)c1nc2ccccc2s1)c1ccccc1 |  |  |  | 26.7 |  | > 100 |  | 6.2 |  | 13.3 |  | 32.6 |  | 29.9 |  | 17 |  | 14.8 |  |  |
| COc1ccc(-c2ccc(-c3ccc(C(=N)N)cn3)o2)cc1Cl |  |  | 1660 | 3.51 | 2.7 | 7.5 | 1790 | 3.53 |  |  | 1610 | 3.07 | 1.92 | 4.04 | 2.35 | 4.85 | 1780 | 3.57 |  |  |
| CC(=O)/C=C1\CC(=O)Nc2ccccc2N1 |  |  |  | > 100 |  | > 100 |  | > 100 |  | > 100 |  | > 100 |  | > 100 |  | > 100 |  | > 100 | > 100 |  |
